According to patent US20180200275A1, “METHOD AND THE USE TO IMPROVE ORAL ABSORPTION OF NICOTINAMIDE AND NICOTINAMIDE RIBOSIDE” (Better Standing Company Inc., priority 2017, published 2018):

Experiments:
[1] = cited from earlier work
[2] = effects noted by a person (the inventor) after oral consumption; type: in vivo, human; conditions: 50 mg nicotinamide or 125 mg N-Ribosylnicotinamide chloride with water only, one person

SMILES: NC(=O)c1cccnc1 [nicotinamide, 3-pyridinecarboxamide]
- pKa of the pyridine ring nitrogen atom [1]: 4.14
- effects of consuming shortly before bed with water only [2]: no discernible effects
